Experimental data as given in PubChem BioAssay (NCI).
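Interpolation was linear, between the two tested concentrations surrounding the appropriate level; five concentrations were tested over 48 hours in 96-well plates. GI50 = concentration required for 50% inhibition of growth. The concentration for full growth arrest is given as TGI.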

Tests used:
Test in all cases: inhibition of tumour cell growth, NCI panel, 48 h
[1] = system: T-47D breast
[2] = system: OVCAR-3 ovarian
[3] = system: MDA-MB-231 breast
[4] = system: NCI-H23 lung
[5] = system: MOLT-4 leukemia
[6] = system: RPMI-8226 leukemia
[7] = system: HOP-62 NSCLC
[8] = system: SK-MEL-5 melanoma
[9] = system: HL-60(TB) leukemia
[10] = system: UACC-257 melanoma

| SMILES | GI50 [1] | TGI [1] | GI50 [2] | TGI [2] | GI50 [3] | TGI [3] | GI50 [4] | TGI [4] | GI50 [5] | TGI [5] | GI50 [6] | TGI [6] | GI50 [7] | TGI [7] | GI50 [8] | TGI [8] | GI50 [9] | TGI [9] | GI50 [10] | TGI [10] |
| --- | --- | --- | --- | --- | --- | --- | --- | --- | --- | --- | --- | --- | --- | --- | --- | --- | --- | --- | --- | --- |
| CC(=O)O.CC(=O)O.CC(=O)O.CC(=O)O.[Rh].[Rh] | 14.9 µM | > 100 µM | 26.1 µM | > 100 µM | 48.6 µM | > 100 µM | 32.1 µM | > 100 µM | 22.6 µM | 47 µM | 19.4 µM | 50.8 µM | 28.8 µM | 84.3 µM | 18.6 µM | 37 µM | 23.7 µM | 50.9 µM | 19.5 µM | 64.8 µM |
| Cn1nnc2c(C(N)=O)ncn2c1=O | – | > 100 µM | – | > 100 µM | – | > 100 µM | – | > 100 µM | – | > 100 µM | – | > 100 µM | – | > 100 µM | – | > 100 µM | – | > 100 µM | – | > 100 µM |
| Oc1c(Cl)cc(Cl)c2cccnc12 | 2.35 µM | 12 µM | 3.17 µM | 11.6 µM | 3.04 µM | 18.3 µM | 4.2 µM | 42.5 µM | 3.41 µM | 17.8 µM | 4.34 µM | > 100 µM | 2.24 µM | 21.1 µM | 1.76 µM | 3.59 µM | 2.87 µM | 6.65 µM | 2.26 µM | 7.24 µM |
| OCc1ccc(N2CCCC2)cc1Cl | 0.538 µM | 2.88 µM | 2.18 µM | 7.25 µM | > 79.4 µM | > 100 µM | 27.5 µM | > 100 µM | 36.9 µM | > 100 µM | 6.22 µM | > 84.5 µM | 10.2 µM | > 100 µM | 18.7 µM | > 75.5 µM | 13.7 µM | > 75.6 µM | 0.338 µM | 1.28 µM |
| Nc1ncccc1-c1nc2ccc(-c3ccccc3)nc2n1-c1ccc(C2(N)CCC2)cc1 | < 0.0118 µM | 0.158 µM | 0.353 µM | 10.6 µM | 1.46 µM | 3.39 µM | 5.19 µM | 21.5 µM | 0.188 µM | 7.88 µM | 1.74 µM | 4.78 µM | 1.9 µM | 8.48 µM | 1.36 µM | 2.67 µM | 1.83 µM | 3.92 µM | 1.28 µM | 2.73 µM |
| O=c1c(O)cccn1CCCN(CCCn1cccc(O)c1=O)CCn1cccc(O)c1=O | 5.64 µM | > 100 µM | 3.39 µM | > 100 µM | 8.28 µM | > 100 µM | 21.1 µM | > 100 µM | 1.79 µM | > 100 µM | 1.99 µM | > 100 µM | 4.35 µM | > 100 µM | 2.67 µM | > 100 µM | 5.54 µM | 55.3 µM | 3.42 µM | 22.4 µM |
